The conditions of series [1]: cited from earlier work; for within-subject variability (coefficient of variation) of Cmax: ref unpublished previous study results.

These results are taken from publication PMC7136079 (Translational and Clinical Pharmacology, 2020).

Where two headings read alike, the source gives them in different places.

For `N[C@@H](CC(=O)N1CCc2c(nc(C(F)(F)F)nc2C(F)(F)F)C1)CN1CC(F)(F)CCC1=O` [Gemigliptin], where the note is “fed state, ratio of the FDC to the loose combination”, the “AUCinf geometric mean ratio (90% CI)” value was 0.9940 (0.9691–1.0195). Besides, the Tmax entry in series [1] (50 mg) was “approximately 2 hours”. In series [1], the “terminal half-life (t1/2)” value was 17.1 h and the “time at which maximum concentration (Cmax) was attained” value was 2 h. In addition, in series [1] (dose range of 50–400 mg), the pharmacokinetic dose linearity result is “linearity”. The “within-subject variability (coefficient of variation) of Cmax” value in series [1] (fasted state, 2016) is given as “approximately 23.4%”. Moreover, the “within-subject variability (coefficient of variation) of Cmax” value in series [1] (fed state, 2015) is “approximately 20.4%”.
Consider `CN(C)C(=N)N=C(N)N` [Metformin], for which the Tmax is, setting by setting: (fed state (high fat meal), given as loose combination gemigliptin 50 mg + metformin XR 1,000 mg, n = 30, median [minimum–maximum]) 6.00 [4.00–8.03] h; (human, plasma, oral) 6.04 h. In addition, the “time to reach Cmax” value in series [1] (extended-release formulations) is 4 to 8 h.
